Results on 1 compound are retold here after US8003331B2, “Method for identifying target protein of drug and method for screening therapeutic agent for diabetes using the target protein” (Astellas Pharma Inc., priority 2005, dated 2011).

One test deals with T1, TARDBP (Homo sapiens, UniProt Q13148).
T1 construct: endogenous in cells; host or cells: THP-1
Kind of test: pull-down with 8 GST fusion chaperone proteins from THP-1 cell extract, negative staining and mass spectrum identification. In kind it is binding. The conditions noted are these: 100 μM thalidomide added or not added. On the procedure:
Thalidomide has significant drug effects for sleep inducing agents, multiple myeloma, HIV, Hansen's disease and the like, but direct target protein of thalidomide has so far been unclear. Accordingly, an attempt was made to screen a target protein of thalidomide using the method shown in the aforementioned “Example 2(2). A human monocytic cell line THP-1 (ATCC) was cultured and suspended in 60 ml of a minimum essential medium (RPMI 1640, Invitrogen) containing 10% fetal calf serum (FCS) and cultured on a plate of 10 cm in diameter (Asahi Techno Glass) until reached 10^6 cells/ml. The cells were collected by 3 minutes of centrifugation at 1200 rpm, washed once with 10 ml of ice-cooled PBS and then lysed by adding 2.0 ml of the aforementioned buffer A, and the cell extract was collected. […] Under a condition of adding or not adding 100 μM in final concentration of thalidomide ((−)-thalidomide, Sigma), a pull-down test was carried out by mixing this soluble fraction of cell extract with 8 species of GST fusion chaperone proteins purified on the glutathione Sepharose beads (a mixture of GST-HSPA1A, GST-HSPH1, GST-HSPCA, GST-HSPD1, GST-DNAJA1, GST-HSPB1, GST-HSPE1 and GST-HSPA4; respective proteins were mixed in 0.5 μg portions). In this connection, steps and conditions of the pull-down test were the same as the aforementioned Example 2(2). […]

The test system of a further test is TNF-α. The experiment in a line: TNF-α gene expression in HeLa S3 cell (real time PCR, corrected by β-actin). The test is classed as cell-based, human. On the procedure:
The pcDNA-TARDBP or an empty vector (pcDNA3.1) (Invitrogen) was transferred into HeLa S3 cell. Illustratively, the HeLa S3 cell (ATCC) was firstly cultured in a 12 well culture plate until it reached a state of 70% confluent, by adding 1 ml of a minimum essential medium DMEM (Gibco) containing 10% fetal bovine serum (Sigma) to each well of the culture plate. The medium was substituted by 0.5 ml per well of a serum-free medium OPTI MEM I (Invitrogen), and 0.8 μg/well of the pcDNA-TARDBP or pcDNA3.1 was transiently transferred using Lipofect amine 2000 (Invitrogen). After 12 hours of the culturing, this was substituted by 1 ml/well of DMEM containing 10% of fetal bovine serum and further cultured for 12 hours. This was further cultured for 16 hours under a condition of adding or not adding okadaic acid (Wako Pure Chemical Industries) to a final concentration of 50 nM. In this case, […] was added a part of the cells simultaneously with the okadaic acid treatment. The medium was discarded, the cells were washed twice with ice-cooled PBS, and then these cells were frozen and stored at −80° C.
Total RNA was prepared from each cell frozen in the aforementioned Example 9(2), using a reagent for RNA extraction use (Isogen; Nippon Gene) and in accordance with the instructions attached thereto. The thus prepared each total RNA was then treated with a deoxyribonuclease (Nippon Gene), subjected to phenol/chloroform treatment and ethanol precipitation and dissolved in sterile water. Using 1 μg of this total RNA, its reverse transcription into a single-stranded cDNA was carried out in a system of 20 μl using a kit for reverse transcription reaction use (Advantage™ RT-for-PCR Kit; Clontech).
Six oligonucleotides (SEQ ID NO:97 to SEQ ID NO:102) were designed and synthesized as primers of PCR for the measurement of gene expression quantity. A combination of SEQ ID NO:97 and SEQ ID NO:98 was used for human β-actin gene, and a combination of SEQ ID NO:99 and SEQ ID NO:100 for human TNF-α gene, and a combination of SEQ ID NO:101 and SEQ ID NO:102 for human TARDBP gene, respectively. […]
The expression quantities of human TNF-α gene and human TARDBP gene in each sample were corrected by the expression quantity of β-actin gene based on the following equation. [Corrected expression quantity of TNF-α or TARDBP]=[expression quantity of TNF-α or TARDBP gene (raw data)/[expression quantity of β-actin gene (raw data)]
In comparing the expression quantities of TNF-α and TARDBP genes, relative amounts were calculated by regarding the expression quantity in a cell, into which an empty vector (pcDNA3.1) was transferred and which was treated only with the solvent (DMSO), as 100, with the results sown in FIG. 9 and FIG. 10. […]

T1 sequence (Q13148 whole entry): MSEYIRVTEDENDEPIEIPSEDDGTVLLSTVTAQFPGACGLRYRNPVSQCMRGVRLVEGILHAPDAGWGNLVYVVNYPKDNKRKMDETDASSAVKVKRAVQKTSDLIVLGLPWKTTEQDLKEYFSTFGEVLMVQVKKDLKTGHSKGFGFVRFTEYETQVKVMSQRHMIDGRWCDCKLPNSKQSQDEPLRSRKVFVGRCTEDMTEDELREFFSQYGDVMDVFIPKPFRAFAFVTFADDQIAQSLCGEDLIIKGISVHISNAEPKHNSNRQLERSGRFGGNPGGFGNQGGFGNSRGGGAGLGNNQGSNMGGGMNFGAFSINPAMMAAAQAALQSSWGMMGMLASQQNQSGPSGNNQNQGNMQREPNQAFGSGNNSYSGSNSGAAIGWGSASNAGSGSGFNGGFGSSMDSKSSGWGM

For the compound `O=C1CCC(N2C(=O)c3ccccc3C2=O)C(=O)N1` (single isomer, unassigned; (-)) [thalidomide, (−)-thalidomide], the “band of about 45 kDa (TARDBP) binding to GST fusion chaperone protein mixture” value on TARDBP is “present only when thalidomide was added”. Besides, the “action to suppress expression of TNF-α” value in the test with TNF-α (TARDBP high expression cell (pcDNA-TARDBP HeLa S3), with 50 nM okadaic acid) was “not observed”. Besides, the “suppression of expression acceleration of TNF-α by okadaic acid” value in the test on TNF-α (control cell (empty vector HeLa S3), thalidomide '100' added with 50 nM okadaic acid, 16 hours) is reported as around 50%.
